Experiments:
[1] = tested on: corn; assay: Test C preemergence; format: in vivo, Zea mays
Procedure, shortened: (§1)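 Seeds sown in loam–sand blend and treated preemergence with test chemicals in non-phytotoxic solvent with surfactant; postemergence plants in peat-based medium, treated at 2–18 cm (1- to 4-leaf stage). Greenhouse 13 to 15 days, then visual rating versus controls, 0 (no effect) to 100 (complete control).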

[2] = tested on: blackgrass; assay: Test C postemergence; format: in vivo, Alopecurus myosuroides; conditions: for Plant response rating (scale of 0 to 100), Blackgrass: 16 g ai/ha; for Blackgrass plant response rating: scale 0 to 100; for Plant response rating (scale of 0 to 100 where 0 is no effect and 100 is complete control), Blackgrass: visually evaluated after 13 to 15 days
Procedure, shortened: as §1

[3] = tested on: corn; assay: Test A postemergence; format: in vivo, Zea mays
Procedure, shortened: (§2)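 Ratings express plant response from 0 (no effect) to 100 (complete control), judged visually against untreated controls after approximately 10 days in the greenhouse. Preemergence applications were made as directed soil sprays onto seeded loam–sand mix, and postemergence applications onto 2–10 cm plants at one- to two-leaf stage.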

[4] = tested on: wheat; assay: Test A preemergence; format: in vivo, Triticum aestivum; conditions: preemergence
Procedure, shortened: as §2

[5] = tested on: foxtail, giant; assay: Test A preemergence; format: in vivo, Setaria faberii
Procedure, shortened: as §2

[6] = tested on: crabgrass, large; assay: Test A preemergence; format: in vivo, Digitaria sanguinalis
Procedure, shortened: as §2

[7] = tested on: velvetleaf; assay: Test A preemergence; format: in vivo, Abutilon theophrasti; conditions: for Velvetleaf plant response rating: 0 to 100 scale
Procedure, shortened: as §2

[8] = tested on: nutsedge, yellow; assay: Test C postemergence; format: in vivo, Cyperus esculentus; conditions: for Plant response rating (scale of 0 to 100), Nutsedge, Yellow: 16 g ai/ha; for Nutsedge, Yellow plant response rating: scale 0 to 100; for Plant response rating (scale of 0 to 100 where 0 is no effect and 100 is complete control), Nutsedge, Yellow: visually evaluated after 13 to 15 days
Procedure, shortened: as §1

[9] = tested on: galium; assay: Test C preemergence; format: in vivo, Galium aparine
Procedure, shortened: as §1

[10] = tested on: pigweed; assay: Test C postemergence; format: in vivo, Amaranthus retroflexus; conditions: for Plant response rating (scale of 0 to 100), Pigweed: 16 g ai/ha; for Pigweed plant response rating: scale 0 to 100
Procedure, shortened: as §1

[11] = tested on: ragweed; assay: Test C postemergence; format: in vivo, Ambrosia elation; conditions: for Plant response rating (scale of 0 to 100), Ragweed: 16 g ai/ha; for Ragweed plant response rating / Plant response rating, Ragweed: postemergence; for Ragweed plant response rating: 62 g ai/ha, scale 0 to 100
Procedure, shortened: as §1

[12] = tested on: ragweed; assay: Test C preemergence; format: in vivo, Ambrosia elation
Procedure, shortened: as §1

[13] = tested on: rice; assay: Test B flood; format: in vivo, Oryza sativa; conditions: 250 g ai/ha, visual rating on 0 to 100 scale (0 no effect, 100 complete control), 13 to 15 days
Procedure, shortened: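 Flooded-pot test: compound dosed into 3 cm of standing water above soil when plants had two leaves. Visual control ratings (0–100) versus untreated plants after 13–15 d.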

[14] = tested on: pigweed; assay: Test A postemergence; format: in vivo, Amaranthus retroflexus
Procedure, shortened: as §2

[15] = Preemergence, 16 g ai/ha, scale 0 to 100
[16] = preemergence, 31 g ai/ha, scale 0 to 100 (0 no effect, 100 complete control), 13 to 15 days
[17] = preemergence, 62 g ai/ha, 13 to 15 days, scale 0 to 100, 0 = no effect, 100 = complete control
[18] = preemergence, 125 g ai/ha, scale 0 to 100, 0 is no effect, 100 is complete control
[19] = postemergence, 125 g ai/ha, scale 0 to 100, 0 no effect, 100 complete control
[20] = Postemergence, 500 g ai/ha, visual rating after approx. 10 days, 0 to 100 scale (0 no effect, 100 complete control)
[21] = postemergence, 125 g ai/ha, about 10 days, visual rating on 0 to 100 scale (0 no effect, 100 complete control)
[22] = 125 g ai/ha, visual injury, 0 to 100 scale, approx. 10 days
[23] = 500 g ai/ha, visual injury after approx. 10 days, 0 to 100 scale (0 no effect, 100 complete control)
[24] = Preemergence, 500 g ai/ha, 0 to 100 scale, 0 no effect, 100 complete control
[25] = preemergence, 125 g ai/ha, visual injury, 0 to 100 scale, approx. 10 days
[26] = Preemergence, 500 g ai/ha, 0 no effect, 100 complete control
[27] = preemergence, 125 g ai/ha, visual injury, approx. 10 days
[28] = 125 g ai/ha, scale 0 to 100, 0 no effect, 100 complete control
[29] = preemergence, 31 g ai/ha, visual rating, scale 0 to 100 (0 no effect, 100 complete control), 13 to 15 days
[30] = preemergence, 62 g ai/ha, scale 0 to 100 (0 no effect, 100 complete control), 13 to 15 days
[31] = preemergence, 125 g ai/ha, 13 to 15 days, scale 0 to 100, 0 = no effect, 100 = complete control
[32] = preemergence, 250 g ai/ha, scale 0 to 100, 0 is no effect, 100 is complete control
[33] = postemergence, 250 g ai/ha, scale 0 to 100 (0 no effect, 100 complete control)
[34] = Postemergence, 125 g ai/ha, 0 to 100 scale, 0 no effect, 100 complete control
[35] = Postemergence, 500 g ai/ha, 0 to 100 scale (0 no effect, 100 complete control)
[36] = preemergence, 125 g ai/ha, visual injury approx. 10 days after treatment
[37] = preemergence, 500 g ai/ha, visual injury after approx. 10 days, 0 to 100 scale (0 no effect, 100 complete control)
[38] = Postemergence, 31 g ai/ha, visually evaluated after 13 to 15 days

CCCNC(=O)c1cc(CC)n(Cc2ccnc(C(F)(F)F)c2)n1 [Compound 75]
Plant response rating, Corn [1, 15]: 10 | Corn plant response rating [1, 16]: 60 | Plant response rating, Corn [1, 17]: 98 | Corn plant response rating [1, 18]: 100 | Plant response rating (scale of 0 to 100), Blackgrass ([2]; Postemergence): 5 | Blackgrass plant response rating ([2]; Postemergence, 31 g ai/ha): 5 | Blackgrass plant response rating ([2]; postemergence, 62 g ai/ha): 10 | Plant response rating, Blackgrass [2, 19]: 15 | Corn plant response rating [3, 20]: 90 | Corn plant response rating [3, 21]: 80 | Wheat plant response rating [4, 22]: 80 | Wheat plant response rating [4, 23]: 100 | Foxtail, Giant plant response rating [5, 24]: 100 | Foxtail, Giant plant response rating [5, 25]: 100 | Crabgrass, Large plant response rating [6, 24]: 100 | Crabgrass, Large plant response rating [6, 25]: 100 | Velvetleaf plant response rating [7, 26]: 100 | Velvetleaf plant response rating [7, 27]: 80 | Plant response rating (scale of 0 to 100), Nutsedge, Yellow ([8]; Postemergence): 0 | Nutsedge, Yellow plant response rating ([8]; Postemergence, 31 g ai/ha): 5 | Nutsedge, Yellow plant response rating ([8]; postemergence, 62 g ai/ha): 5 | Plant response rating, Nutsedge, Yellow [8, 19]: 10 | Plant response rating, Galium [9, 15]: 90 | Galium plant response rating [9, 16]: 100 | Plant response rating, Galium [9, 17]: 100 | Galium plant response rating [9, 18]: 100 | Plant response rating (scale of 0 to 100), Pigweed ([10]; Postemergence): 40 | Pigweed plant response rating ([10]; Postemergence, 31 g ai/ha): 40 | Pigweed plant response rating ([10]; postemergence, 62 g ai/ha): 60 | Plant response rating, Pigweed [10, 19]: 80 | Plant response rating (scale of 0 to 100), Ragweed ([11]; Postemergence): 40 | Ragweed plant response rating [11]: 70 | Plant response rating, Ragweed [11, 28]: 85 | Plant response rating, Ragweed [12, 15]: 70 | Ragweed plant response rating [12, 16]: 90 | Plant response rating, Ragweed [12, 17]: 90 | Ragweed plant response rating [12, 18]: 100 | Plant response rating, Rice [13]: 35 | Pigweed plant response rating [14, 20]: 100 | Pigweed plant response rating [14, 21]: 100

CCc1cc(C(=O)NCC(F)(F)F)nn1Cc1ccnc(SC(F)(F)F)c1 [Compound 214]
Corn plant response rating [1, 29]: 0 | Corn plant response rating [1, 30]: 0 | Plant response rating, Corn [1, 31]: 35 | Corn plant response rating [1, 32]: 40 | Plant response rating (scale of 0 to 100 where 0 is no effect and 100 is complete control), Blackgrass ([2]; Postemergence, 31 g ai/ha): 5 | Blackgrass plant response rating ([2]; postemergence, 62 g ai/ha): 5 | Plant response rating, Blackgrass [2, 33]: 50 | Plant response rating, Blackgrass [2, 19]: 10 | Corn plant response rating [3, 34]: 40 | Corn plant response rating [3, 35]: 90 | Wheat plant response rating (0 to 100 scale) ([4]; 125 g ai/ha, visual injury approx. 10 days after treatment): 80 | Foxtail, Giant plant response rating (0 to 100 scale) [5, 36]: 100 | Foxtail, Giant plant response rating [5, 37]: 100 | Crabgrass, Large plant response rating (0 to 100 scale) [6, 36]: 100 | Crabgrass, Large plant response rating [6, 37]: 100 | Velvetleaf plant response rating (0 to 100 scale) [7, 36]: 100 | Plant response rating (scale of 0 to 100 where 0 is no effect and 100 is complete control), Nutsedge, Yellow ([8]; Postemergence, 31 g ai/ha): 0 | Nutsedge, Yellow plant response rating ([8]; postemergence, 62 g ai/ha): 10 | Plant response rating, Nutsedge, Yellow [8, 33]: 5 | Plant response rating, Nutsedge, Yellow [8, 19]: 5 | Galium plant response rating [9, 29]: 80 | Galium plant response rating [9, 30]: 80 | Plant response rating, Galium [9, 31]: 90 | Galium plant response rating [9, 32]: 80 | Pigweed plant response rating ([10]; postemergence, 62 g ai/ha): 60 | Plant response rating, Pigweed [10, 33]: 85 | Plant response rating, Pigweed [10, 19]: 75 | Plant response rating, Ragweed ([11]; 250 g ai/ha, scale 0 to 100 (0 no effect, 100 complete control)): 70 | Plant response rating, Ragweed [11, 28]: 35 | Ragweed plant response rating [12, 29]: 85 | Ragweed plant response rating [12, 30]: 98 | Plant response rating, Ragweed [12, 31]: 100 | Ragweed plant response rating [12, 32]: 98 | Plant response rating, Rice [13]: 60 | Pigweed plant response rating [14, 34]: 100 | Pigweed plant response rating [14, 35]: 100

CCONC(=O)c1cc(CC)n(Cc2ccnc(C(F)(F)F)c2)n1 [Compound 77]
Plant response rating, Corn [1, 15]: 0 | Corn plant response rating [1, 16]: 0 | Plant response rating, Corn [1, 17]: 15 | Corn plant response rating [1, 18]: 55 | Plant response rating (scale of 0 to 100), Blackgrass ([2]; Postemergence): 0 | Plant response rating (scale of 0 to 100 where 0 is no effect and 100 is complete control), Blackgrass ([2]; Postemergence, 31 g ai/ha): 5 | Blackgrass plant response rating ([2]; postemergence, 62 g ai/ha): 5 | Plant response rating, Blackgrass [2, 19]: 5 | Corn plant response rating [3, 20]: 40 | Corn plant response rating [3, 21]: 30 | Wheat plant response rating [4, 22]: 20 | Wheat plant response rating [4, 23]: 40 | Foxtail, Giant plant response rating [5, 24]: 100 | Foxtail, Giant plant response rating [5, 25]: 100 | Crabgrass, Large plant response rating [6, 24]: 100 | Crabgrass, Large plant response rating [6, 25]: 100 | Velvetleaf plant response rating [7, 26]: 80 | Velvetleaf plant response rating [7, 27]: 20 | Plant response rating (scale of 0 to 100), Nutsedge, Yellow ([8]; Postemergence): 0 | Plant response rating (scale of 0 to 100 where 0 is no effect and 100 is complete control), Nutsedge, Yellow ([8]; Postemergence, 31 g ai/ha): 5 | Nutsedge, Yellow plant response rating ([8]; postemergence, 62 g ai/ha): 5 | Plant response rating, Nutsedge, Yellow [8, 19]: 5 | Plant response rating, Galium [9, 15]: 0 | Galium plant response rating [9, 16]: 0 | Plant response rating, Galium [9, 17]: 5 | Galium plant response rating [9, 18]: 10 | Plant response rating (scale of 0 to 100), Pigweed ([10]; Postemergence): 25 | Plant response rating (scale of 0 to 100 where 0 is no effect and 100 is complete control), Pigweed [10, 38]: 50 | Pigweed plant response rating ([10]; postemergence, 62 g ai/ha): 55 | Plant response rating, Pigweed [10, 19]: 60 | Plant response rating (scale of 0 to 100), Ragweed ([11]; Postemergence): 5 | Plant response rating (scale of 0 to 100 where 0 is no effect and 100 is complete control), Ragweed [11, 38]: 5 | Ragweed plant response rating [11]: 10 | Plant response rating, Ragweed [11, 28]: 10 | Plant response rating, Ragweed [12, 15]: 10 | Ragweed plant response rating [12, 16]: 35 | Plant response rating, Ragweed [12, 17]: 70 | Ragweed plant response rating [12, 18]: 85 | Plant response rating, Rice [13]: 20 | Pigweed plant response rating [14, 20]: 100 | Pigweed plant response rating [14, 21]: 100
